Measurements: ChEMBL document CHEMBL3259674, “Structure-Activity Relationship of Semicarbazone EGA Furnishes Photoaffinity Inhibitors of Anthrax Toxin Cellular Entry” (ACS Med Chem Lett, 2014)
The source made the active and inactive calls. The calls are words filed in the database; no cut-off is given here.

target: T1, Antrax lethal toxin (Bacillus anthracis) (UniProt P15917+P13423); settings: RAW264.7, at 25 µM

Compound | inhibition
Cc1cccc(C)c1NC(=S)N/N=C/c1c(F)cc(Br)cc1F | inactive
Cc1cccc(C)c1NC(=O)N/N=C/c1ccncc1 | inactive
Cc1cccc(C)c1NC(=O)N/N=C/c1cccc(C(F)(F)F)c1Cl | inactive
CC(C)(C)NC(=O)N/N=C/c1ccc(Br)cc1 | inactive
Cc1cccc(C)c1NC(=S)N/N=C/c1ccc(Br)cc1F | inactive
Cc1ccc(NC(=O)N/N=C/c2ccc(Br)cc2)c(C)c1 | inactive
Cc1cccc(C)c1NC(=O)NN | inactive
C#CCN(/N=C/c1ccc(N=[N+]=[N-])cc1)C(=O)Nc1c(C)cccc1C | inactive
Cc1cccc(C)c1NC(=O)N/N=C/c1ccccc1 | inactive
Cc1ccccc1/C=N/NC(=O)Nc1c(C)cccc1C | inactive
COc1cccc(/C=N/NC(=O)Nc2c(C)cccc2C)c1OC | inactive
Cc1cccc(C)c1NC(=O)N/N=C/c1ccco1 | inactive
O=C(N/N=C/c1ccc(Cl)cc1)Nc1ccccc1 | inactive
Cc1cccc(C)c1NC(=O)N/N=C/c1ccc(NS(C)(=O)=O)cc1 | inactive
COc1cc(OC)c(/C=N/NC(=O)Nc2c(C)cccc2C)c(OC)c1 | inactive

target: T1, Antrax lethal toxin (Bacillus anthracis); assay: Reversible inhibition of Bacillus anthracis lethal toxin-induced mouse RAW264.7 cell death at 25 uM preincubated for 1 hr followed by compound washout measured 4 hrs post lethal toxin challenge; format: protein-complex assay; settings: not given

Compound | inhibition
Cc1cccc(C)c1NC(=O)N/N=C/c1c(F)c(F)c(N=[N+]=[N-])c(F)c1F | Active
Cc1cccc(C)c1NC(=O)N/N=C/c1ccc(N=[N+]=[N-])cc1 | Active

target: T1, Antrax lethal toxin (Bacillus anthracis); assay: Irreversible inhibition of Bacillus anthracis lethal toxin-induced mouse RAW264.7 cell death at 12.5 uM preincubated for 1 hr followed by UV irradiation measured after 5 mins; format: protein-complex assay; settings: not given

Compound | inhibition
Cc1cccc(C)c1NC(=O)N/N=C/c1ccc(N=[N+]=[N-])cc1F | inactive

target: T1, Antrax lethal toxin (Bacillus anthracis); assay: Reversible inhibition of Bacillus anthracis lethal toxin-induced mouse RAW264.7 cell death at 12.5 uM preincubated for 1 hr followed by compound washout measured 4 hrs post lethal toxin challenge; format: protein-complex assay; settings: not given

Compound | inhibition
Cc1cccc(C)c1NC(=O)N/N=C/c1ccc(N=[N+]=[N-])cc1F | Active

target: T1, Antrax lethal toxin (Bacillus anthracis); assay: Irreversible inhibition of Bacillus anthracis lethal toxin-induced mouse RAW264.7 cell death at 25 uM preincubated for 1 hr followed by UV irradiation measured after 5 mins; format: protein-complex assay; settings: not given

Compound | inhibition
Cc1cccc(C)c1NC(=O)N/N=C/c1c(F)c(F)c(N=[N+]=[N-])c(F)c1F | Active
Cc1cccc(C)c1NC(=O)N/N=C/c1ccc(N=[N+]=[N-])cc1 | Active
